Data reported in ChEMBL document CHEMBL5724558, “Image-based profiling of drug vulnerabilities in CRC organoids” (2024).
Values joined by “and” are separate entries in the source; they are usually repeats but may differ in a detail not shown here. Equal values may be shown once.

How the values were obtained:
Format in all cases: functional, Homo sapiens
Parameters in all cases: dose or concentration left out as unconfirmed
[1] = test system: Colon cancer organoid; assay: (§1) Image-based profiling of donated chemical probes and chemogenomic kinase set in O06 CRC organoid. Image analysis is performed on the sum area metric, and the data were normalized to the DMSO control. After imaging the organoid viability is measured using the OneGloEX Luciferase Assay System. The normalized viability data and sum area are reported.
[2] = test system: Colon cancer organoid; assay: as §1, with “O09” for “O06”
[3] = test system: Colon cancer organoid; assay: as §1, with “O21” for “O06”

Row | SMILES | Cell Viability ([1]; Replication number 1) | Cell Viability ([1]; Replication number 2) | Cell Viability ([2]; Replication number 1) | Cell Viability ([2]; Replication number 2) | Cell Viability ([3]; Replication number 1) | Cell Viability ([3]; Replication number 2)
1 | Cc1ccc2nc(CNCCCOc3ccccc3)cc(O)c2c1 [UCSF924] | 116.607% and 123.644% | 89.7333% and 84.3345% | 89.1468% and 105.602% | 80.3683% and 95.5591% | 109.248% and 108.585% | 100.134% and 96.363%
2 | CC(C)Oc1ccc(-c2nn([C@@H](C)c3oc4ccc(F)cc4c(=O)c3-c3cccc(F)c3)c3ncnc(N)c23)cc1F [UMBRALISIB] | 88.4125% and 133.76% | 91.2943% and 112.494% | 196.172% and 129.157% | 74.9501% and 109.33% | 111.232% and 144.39% | 124.887% and 154.3%
3 | CC[C@@H]1CN(C(=O)NCC(F)(F)F)C[C@@H]1c1cnc2cnc3[nH]ccc3n12 [UPADACITINIB] | 103.03% and 85.909% | 77.8559% and 94.8072% | 147.971% and 117.189% | 96.4317% and 92.8632% | 100.634% and 104.808% | 99.9708% and 92.6952%
4 | CNC(=O)c1ccccc1Nc1cc(Nc2ccc(N3CCOCC3)cc2OC)ncc1C(F)(F)F [VS-4718] | 26.6369% and 55.3846% | 24.9671% and 46.6122% | 16.1966% and 32.4497% | 15.3454% and 34.2982% | 46.4172% and 62.2044% | 35.2448% and 60.1632%
5 | O=C(NNS(=O)(=O)c1ccccc1F)c1cc(F)cc(-c2ccccn2)c1 [WM-1119] | 59.5797% and 94.7368% | 61.7919% and 84.5747% | 133.421% and 96.9739% | 39.4001% and 91.3957% | 82.8466% and 99.3088% | 81.4128% and 90.2447%
6 | O=C(NNS(=O)(=O)c1ccccc1)c1cc(-c2ccnnc2)ccc1F [WM-2474] | 103.665% and 117.571% | 96.3756% and 98.5103% | 112.004% and 108.416% | 87.165% and 94.3695% | 113.818% and 97.6719% | 86.2106% and 79.5377%
7 | Nc1nc(NCc2ccccc2)nc(-c2cccc(CO)c2)n1 [ZINC32547799] | 89.5578% and 102.51% | 72.3824% and 71.8405% | 98.3992% and 98.4744% | 101.098% and 100.714% | 95.0079% and 87.3045% | 101.984% and 101.971%
8 | FC(F)c1nc2ccccc2n1-c1nc(N2CCOCC2)nc(N2CCOCC2)n1 [ZSTK-474] | 51.8719% and 106.162% | 61.9887% and 87.8149% | 70.4686% and 75.7987% | 41.1971% and 64.5183% | 72.4296% and 85.8537% | 82.8986% and 74.2713%
